According to paper PMC10410440, “Preclinical PK investigation of a novel IDO1/TDO dual inhibitor—SHR9146 in mouse plasma and tissues by LC-MS/MS” (Frontiers in Oncology, 2023):
Values joined by “and” are separate entries in the source; they are usually repeats but may differ in a detail not shown here. Identical values can stand only once. “Also recorded” adds a separate entry of the source. Like-named read-outs stand apart in the source and are kept apart here.

Experiment: Plasma pharmacokinetics of SHR9146 in mice (LC-MS/MS, non-compartmental analysis)
Format: in vivo, ICR mice
Settings: for AUC(0-t): read-out: AUC0-t; for half-life: read-out: t1/2 (converted); for Cmax: read-out: Cmax; for Tmax: read-out: Tmax
Description: ICR mice with body weight 16–26 g were supplied by Shanghai Lingchang Biotechnology Co., Ltd. (animal breeding license number SCXK (Shanghai) 2013-0018) and housed at Shanghai Institute of Materia Medica, Chinese Academy of Sciences [animal use license number SYXK (Shanghai) 2015-0027]. The mice used in this study were fasted overnight for 12 h but had free access to water. Food was supplied 4 h post-dose. All experiments in this study were conducted in accordance with the Guidelines for the Care and Use of Laboratory Animals of Shanghai Institute of Materia Medica, Chinese Academy of Sciences.
A total of 30 mice were randomly assigned into five groups with equal numbers, males and females. One group was intravenously administrated with 5 mg/kg SHR9146 dissolved in […] plus 95% saline (adjusted pH to 4.0) under sterile conditions. The remaining four groups were administered respectively with a single dose of 20 , 40, or 80 mg/kg or multiple doses of 20 mg/kg twice daily for 7 days, by oral gavage of SHR9146 dissolved in 0.5% CMC-Na. Blood samples were obtained from the fossa orbitalis vein at 15 and 30 min and 1.0, 2.0, 4.0, 6.0, 8.0, 10.0, and 24.0 h after oral gavage administration. An additional 5-min time point was included for iv injection, as well as the pre-drug administration time points on the fifth, sixth, and seventh days in the multiple-dose group. The blood samples were collected in EDTA K2 anticoagulant blood collection tubes and centrifuged at 1,000 rpm for 5 min at 4°C. The supernatant plasma samples were thus produced.
Briefly as follows, an aliquot of 25-μL plasma or tissue homogenate was spiked with 100 μL of internal standard solution (1 μg/mL for plasma, 0.2 μg/mL for tissue homogenate) and 300 μL of methanol added and vortex mixed for 60 s. The mixture was then centrifuged at 14,000 rpm at 4°C for 5.0 min, and the supernatant was diluted with methanol–water (4:1, v/v) in a ratio of 1:9 for the plasma or 1:1 for the tissue homogenate, and 5 μL of the resulting solution was injected for the LC-MS/MS analysis.
The pharmacokinetic parameters of SHR9146 in mouse plasma were estimated by Phoenix 1.4 software using a non-compartmental model.
The mean concentration–time curves of SHR9146 in mouse plasma after a single oral gavage dose of 20, 40, or 80 mg/kg, or a single intravenous dose of 5 mg/kg, or the 7th-day steady state after twice-daily multiple oral doses of 20 mg/kg are shown in Figure 5 (Table S6).

[1] = female, ICR, mouse, plasma, iv, 5 mg/kg, 5 mg/kg i.v. single dose, female mice, plasma
[2] = female, ICR, mouse, plasma, po, 20 mg/kg, 20 mg/kg i.g. bid, 7 days (7th-day steady state), female mice, plasma
[3] = female, ICR, mouse, plasma, po, 20 mg/kg, 20 mg/kg i.g. single dose, female mice, plasma
[4] = female, ICR, mouse, plasma, po, 40 mg/kg, 40 mg/kg i.g. single dose, female mice, plasma
[5] = female, ICR, mouse, plasma, po, 80 mg/kg, 80 mg/kg i.g. single dose, female mice, plasma
[6] = male, ICR, mouse, plasma, iv, 5 mg/kg, 5 mg/kg i.v. single dose, male mice, plasma
[7] = male, ICR, mouse, plasma, po, 20 mg/kg, 20 mg/kg i.g. bid, 7 days (7th-day steady state), male mice, plasma
[8] = male, ICR, mouse, plasma, po, 20 mg/kg, 20 mg/kg i.g. single dose, male mice, plasma
[9] = male, ICR, mouse, plasma, po, 40 mg/kg, 40 mg/kg i.g. single dose, male mice, plasma
[10] = male, ICR, mouse, plasma, po, 80 mg/kg, 80 mg/kg i.g. single dose, male mice, plasma
[11] = single oral dosing 20 to 80 mg/kg pooled, mouse plasma, n=6

Compound: OCCn1cc(-c2ccc(N3CCC([C@H]4c5c(F)cccc5-c5cncn54)CC3)cc2)cn1 [SHR9146]
- MRT inf (both sexes, ICR, mouse, po, 80 mg/kg i.g. single dose, all mice (Totol, 3 male + 3 female), plasma, read-out: MRT0-∞): 4.6 h
- AUC(0-inf) (female, ICR, mouse, plasma, iv, 5 mg/kg, 5 mg/kg i.v. single dose, female mice): 6910 ng·h/mL
- AUC(0-t) [1]: 6800 ng·h/mL
- half-life [1]: 0.665 h
- AUC(0-inf) (female, ICR, mouse, plasma, po, 20 mg/kg, 20 mg/kg i.g. bid, 7 days (7th-day steady state), female mice): 24300 ng·h/mL
- AUC(0-t) [2]: 24200 ng·h/mL
- Cmax [2]: 10900 ± 737 ng/mL
- Tmax [2]: 0.833 ± 0.289 h
- half-life [2]: 0.951 h
- AUC(0-inf) (female, ICR, mouse, plasma, po, 20 mg/kg, 20 mg/kg i.g. single dose, female mice): 17900 ng·h/mL
- AUC(0-t) [3]: 16800 ng·h/mL
- Cmax [3]: 9170 ± 4240 ng/mL
- Tmax [3]: 0.5 ± 0.433 h
- half-life [3]: 0.866 h
- AUC(0-t) [4]: 12400 ng·h/mL
- Cmax [4]: 9880 ± 3490 ng/mL
- Tmax [4]: 1.83 ± 1.89 h
- AUC(0-inf) (female, ICR, mouse, plasma, po, 80 mg/kg, 80 mg/kg i.g. single dose, female mice): 65900 ng·h/mL
- AUC(0-t) [5]: 64700 ng·h/mL
- Cmax [5]: 18700 ± 7300 ng/mL
- Tmax [5]: 1.17 ± 0.764 h
- half-life [5]: 1.49 h
- AUC(0-inf) (male, ICR, mouse, plasma, iv, 5 mg/kg, 5 mg/kg i.v. single dose, male mice): 6950 ng·h/mL
- AUC(0-t) [6]: 6730 ng·h/mL
- half-life [6]: 0.761 h
- AUC(0-inf) (male, ICR, mouse, plasma, po, 20 mg/kg, 20 mg/kg i.g. bid, 7 days (7th-day steady state), male mice): 24400 ng·h/mL
- AUC(0-t) [7]: 24300 ng·h/mL
- Cmax [7]: 10500 ± 993 ng/mL
- Tmax [7]: 0.833 ± 0.289 h
- half-life [7]: 1.06 h
- AUC(0-inf) (male, ICR, mouse, plasma, po, 20 mg/kg, 20 mg/kg i.g. single dose, male mice): 14600 ng·h/mL
- AUC(0-t) [8]: 14400 ng·h/mL
- Cmax [8]: 10000 ± 2370 ng/mL
- Tmax [8]: 0.417 ± 0.144 h
- half-life [8]: 0.531 h
- AUC(0-inf) (male, ICR, mouse, plasma, po, 40 mg/kg, 40 mg/kg i.g. single dose, male mice): 33400 ng·h/mL
- AUC(0-t) [9]: 31000 ng·h/mL
- Cmax [9]: 15000 ± 3240 ng/mL
- Tmax [9]: 1.33 ± 0.577 h
- half-life [9]: 1.66 h
- AUC(0-inf) (male, ICR, mouse, plasma, po, 80 mg/kg, 80 mg/kg i.g. single dose, male mice): 75900 ng·h/mL
- AUC(0-t) [10]: 75300 ng·h/mL
- Cmax [10]: 15500 ± 6150 ng/mL
- Tmax [10]: 1.83 ± 1.89 h
- half-life [10]: 3.3 h
- Vd, post-oral (oral 20 to 80 mg/kg pooled, mouse plasma, n=6): 3.427 ± 1.617 L/kg
- dose dependence of oral pharmacokinetics (oral 20 to 80 mg/kg, mice, Cmax and AUC): dose proportionality; also recorded: linear pharmacokinetics characteristics; also recorded: dose-independent kinetics
- CL, post-oral [11]: 19.8 ± 0.9 mL/min/kg and 19.769 ± 0.866 mL/min/kg
- Vd, post-oral [11]: 3.43 ± 1.62 L/kg
